Structures are written as SMILES.

The data set is described as follows: gradient 5% acetonitrile 3 min, to 50% in 2 min, to 85% in 15 min, held 3 min, 100 µL/min. To be noted: column: Zorbax Extend-C18 2.1 x 50 mm; eluents: water / acetonitrile, 0.1% formic acid. The essentials:
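Retention times come from adduct peaks that were picked computationally and then checked by hand. The standards, pure and pooled in mixtures of ~100 molecules, were run on a Zorbax Extend-C18 column (2.1 × 50 mm, 1.8 μm) at 100 μL/min with water and acetonitrile, each with 0.1% formic acid. Detection was by quadrupole time-of-flight mass spectrometry in positive and negative ionization mode, with a dead volume of 40 μL and a dwell volume of 900 μL.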
Compound `CCn1cc(S(=O)(=O)N2CCCn3nc(-c4ccc(OC)cc4)cc3C2)cn1` gave an RP-LC retention time of 805 s.
As for `Cc1ccccc1Nc1c(-c2ccc(N3CCOCC3)cc2)nc2cnccn12`, the figure is 822 s; as for `COc1ccccc1Cc1noc(C2CN(C(=O)c3cncc(Br)c3)C2)n1`, 777 s.
With `Cc1ccccc1-c1noc(Cn2ccn(-c3ccc(Cl)cc3)c(=O)c2=O)n1` the figure was 918 s; with `CNC(=O)[C@@H]1CN(C(=O)c2cc(C)no2)C[C@H]1COC`, 558 s.
As for `COc1cc(OC)cc(-c2nc(-c3ccc4c(c3)ncn4CCN3CCCC3)no2)c1`, the figure is 684 s.
`COc1ccccc1-c1nc(C2CC(=O)N(c3ccc(F)cc3)C2)no1` (stereo not given) had an RP-LC retention time of 926 s.
As for `Cc1ccc(NC(=O)N2CCN(c3cc(C)nc(N4CCCC4)n3)CC2)cc1`, the figure is 677 s.
With `CCN1CCn2c(nc3cc(C(=O)NCC4CCCCC4)ccc32)C1=O` the figure was 702 s; with `COc1ccc(NC(=O)Cn2c(=O)n(-c3ccccc3)c3ncccc32)c(OC)c1`, 808 s; with `CC(=O)c1cccc(NC(=O)CC2COc3ccccc3NC2=O)c1` (stereo not given), 676 s.
As for `CC(C)CCNC(=O)CN1C(=O)CCn2nc(-c3cn(C)c4ccccc34)cc21`, the figure is 807 s; as for `CCOC(=O)Cn1c2ccccc2n2nc(C)c(=O)nc12`, 699 s; as for `COc1cccc(S(=O)(=O)N2CCC3(C2)C(=O)N(C)c2ccc(OC)cc23)c1` (stereo not given), 904 s.
For `Cc1ccc(N2C(=O)C3N=NN(Cc4nc(-c5cccc(C(F)(F)F)c5)no4)C3C2=O)cc1Cl` (stereo not given), the RP-LC retention time was determined as 1180 s.
`CC(C)n1cc(C(=O)O)c(S(=O)(=O)N2CCCC2)n1` gave an RP-LC retention time of 712 s.
Compound `CCn1cc(-c2ccc(Cl)cc2)cc1C(=O)NCCCN1CCOCC1` had an RP-LC retention time of 709 s.
With `Cc1ccc(NC(=O)C2CCCN(c3ncnc4c3nc3n4CCCCC3)C2)c(Cl)c1` (stereo not given) the figure was 855 s; with `CC(C)NC(=O)C1CCCCN1S(=O)(=O)c1ccc(Br)cc1` (stereo not given), 969 s.
With `COc1cccc(C2Cn3nnc(-c4nc(-c5ccc(OC(C)C)cc5)no4)c3CO2)c1` (stereo not given) the figure was 1250 s; with `COc1cc(OC)c(NC(=O)N2CCc3c(c(C(=O)N4CCOCC4)nn3C)C2)cc1Cl`, 692 s.
As for `CCN1C(=O)c2cccnc2Sc2cc(NC(=O)COc3ccc(F)c(F)c3)ccc21`, the RP-LC retention time was 882 s.
With `COc1ccc(NC(=O)C2CCN(S(=O)(=O)c3ccc4c(c3)sc(=O)n4C(C)C)CC2)cc1` the figure was 922 s.
With `O=S(=O)(c1ccc(Cl)cc1)c1ccc(N2CCN(c3ncccn3)CC2)nn1` the figure was 884 s; with `CSc1cccc(NC(=O)C2CCCN(c3ccc(=O)n(-c4cccc(Cl)c4)n3)C2)c1` (stereo not given), 1010 s; with `CC(C)c1nnc(-c2ccc(S(=O)(=O)NC3CCCCCC3)o2)o1`, 985 s.
Compound `CCc1ccc(NC(=O)N2CCCC2c2nc(-c3ccccc3OC)no2)cc1` (stereo not given) returned an RP-LC retention time of 976 s.
As for `CC(C)c1ccc(Sc2ccc(N3CCC(C(=O)NCCN(C)C)CC3)nn2)cc1`, the figure is 658 s; as for `Cn1ncc(N2CCC(C(=O)NC3CCCC3)C2)cc1=O` (stereo not given), 630 s.
As for `O=C(NCCCN1CCCC1=O)c1nc2ccccn2c1-c1ccc(F)cc1`, the figure is 656 s; as for `Cc1nc(C2CC23CCN(S(=O)(=O)c2cccc(F)c2)CC3)no1` (stereo not given), 888 s; as for `O=C(Nc1cccnc1)C1CCN(S(=O)(=O)Cc2ccccc2)CC1`, 626 s.
`CCN1CCCn2cc(S(=O)(=O)Nc3cccc(F)c3)cc2C1=O` came in with an RP-LC retention time of 716 s.
Regarding `Cc1ccc(N2CC(c3noc(-c4ccc(N(C)C)cc4)n3)CC2=O)cc1` (stereo not given), the RP-LC retention time amounted to 980 s.
Compound `CCCS(=O)(=O)c1ccc(NC2CCN(Cc3ccccc3)CC2)nn1` yielded an RP-LC retention time of 602 s.
In the case of `CCc1ccc(-c2ccc(-n3nc(C)c(S(=O)(=O)NC4CC4)c3C)nn2)cc1`, the RP-LC retention time stood at 1070 s.
As for `O=C(NCc1cccnc1-c1ccc(F)cc1)c1cc(F)cc(F)c1`, the figure is 710 s; as for `O=C(O)CCCC(=O)Nc1nc(-c2cccc3ccccc23)cs1`, 818 s.
As for `CC(C)CCN1CCC(C2CCN(C(=O)c3ccncc3)C2)CC1` (stereo not given), the figure is 556 s.
As for `CCOC(=O)c1oc2ccc(S(=O)(=O)N3CCCCCCNC(=O)[C@@H]4CCC[C@@H]43)cc2c1C`, the figure is 1060 s.
Take `COC(=O)c1nnn(-c2ccccc2C(F)(F)F)c1N`: the RP-LC retention time came out at 936 s.
As for `C/C=C1/C(=O)C[C@H]2[C@@H]3CCC4=CC(=O)CC[C@]4(C)[C@H]3CC[C@]12C`, the figure is 1100 s; as for `Cc1cccn2cc(C(=O)NCc3ccc(Cl)cc3)nc12`, 704 s; as for `Cc1ccc(-c2nnc(-c3nc(NCCc4cccs4)c4ccccc4n3)o2)cc1`, 1120 s.
As for `O=C(NCCN1CCCCC1)c1csc(-c2ccnc(N3CCOCC3)c2)n1`, the figure is 566 s; as for `COc1ccc(-c2nc3ccccn3c2Nc2ccc(C)cc2)cc1`, 701 s.
With `CN(CC1(C)CCOCC1)S(=O)(=O)c1ccc(Cl)s1` the figure was 976 s; with `Cc1cc(NC(=O)Nc2cccc3ccccc23)no1`, 896 s.
On to `Cn1c(=O)n(C)c2cc(CNCCc3ccc(Cl)cc3)ccc21`, for which the RP-LC retention time came out at 630 s.
As for `CSc1ccc(-c2nc3cnccn3c2Nc2ccc(Cl)cc2)cc1`, the figure is 1010 s.
Compound `CC(C)Sc1cc(NCCCO)c([N+](=O)[O-])c2nonc12` displayed an RP-LC retention time of 723 s.
In turn, `Cc1nnc(C(C)C)n1C1CC2CCC(C1)N2CC[C@H](NC(=O)C1CCC(F)(F)CC1)c1ccccc1` (stereo not given in full) yielded an RP-LC retention time of 674 s.
As for `CCOC(=O)c1ccccc1NC(=O)Cn1c(-c2ccccc2)nc(C)cc1=O`, the figure is 1330 s; as for `CCOC(=O)c1nnc2c(-c3ccc(Br)cc3)c(C)nn2c1C`, 1100 s.
As for `COc1ccc(CC(=O)NCc2c(C)cc(C)nc2-c2ccc(OC)cc2)cc1`, the RP-LC retention time stood at 708 s.
Take `COc1cc(NC(=O)NCCc2nc3cccnc3n2C2CCCC2)cc(OC)c1`: the RP-LC retention time came to 704 s.
In the case of `O=C1Nc2cc(S(=O)(=O)NCCC3=CCCCC3)ccc2SC1C(=O)N1CCCC1` (stereo not given), the RP-LC retention time amounted to 858 s.
With `Cc1ccc(NC(=O)N2CC(c3nc(C)no3)C3(CCOCC3)C2)cc1` (stereo not given), the RP-LC retention time amounted to 716 s.
As for `CCOc1ccc(-c2csc3c(=O)n(Cc4ccncc4)cnc23)cc1OCC`, the figure is 693 s; as for `CCCCN(C)C(=O)C1CCN(S(=O)(=O)c2ccc3c(c2)sc(=O)n3C)CC1`, 822 s.
On to `CC(C)N1C(=O)Cc2ccccc2C1C(=O)N1CCN(c2ccccc2)CC1` (stereo not given), for which the RP-LC retention time is 855 s.
With `CC1CCN(S(=O)(=O)c2ccc3nn(Cc4cccc(F)c4)c(=O)n3c2)CC1` the figure was 781 s; with `CCC1Oc2ccc(S(=O)(=O)N3CCC(C(=O)Nc4cccc(C)c4)CC3)cc2NC1=O` (stereo not given), 814 s.
For `COc1ccc(-c2csc(Nc3ccc(C)cc3)n2)cc1`, the RP-LC retention time turned out to be 1190 s.
Turning to `CCCn1ccc2sc(C)c(C(=O)NC(C)c3ccc(F)cc3)c2c1=O` (stereo not given), the RP-LC retention time is 994 s.
With `CCCC(=O)N1CCc2cn(C)c3cccc(c23)C1` the figure was 832 s; with `Cc1ccc2c(c1)N(S(C)(=O)=O)CCC(C(=O)Nc1ccc(Cl)cc1)O2` (stereo not given), 1020 s; with `O=C(CCc1nc2sc3c(c2c(=O)[nH]1)CCCCC3)N1CCN(C2CCCCC2)CC1`, 610 s.
As for `COCCc1noc([C@@H]2CC(F)(F)CN2C(=O)c2ocnc2C)n1`, the figure is 689 s; as for `Cc1ccc(CNC(=O)C2CCc3nc(N4CCOCC4)ncc3C2)cc1` (stereo not given), 723 s; as for `Cc1ccc(-n2c(N3CCCC(C(=O)NCCCOC(C)C)C3)nc3ccsc3c2=O)cc1` (stereo not given), 838 s.
With `CCCNC(=O)CSc1ncccc1C(=O)O` the figure was 599 s; with `Cc1cnc(C2CN(C(=O)c3ccsc3)C2)n1CC1CC1`, 595 s; with `N#Cc1ccc(-c2nc(-c3cccc(-c4ccn[nH]4)c3)no2)cc1`, 917 s.
Turning to `CCn1nc(C)n2cc(S(=O)(=O)NCc3ccc(F)cc3)cc2c1=O`, the RP-LC retention time came to 836 s.
With `CCNC(=O)c1cc(N2CCOCC2)nc2ccccc12` the figure was 563 s; with `COc1ccc2c(c1)CCc1sc(NC(=O)c3ccc(Cl)cc3)nc1-2`, 1160 s.
With `Cc1ccc(-c2cc3c(=O)n(Cc4nc(-c5ccc(F)cc5)no4)ncn3n2)c(C)c1` the figure was 1220 s; with `CCOC(=O)C1CCCN(Cc2nc3nc(C)cc(N4CCCC4)n3n2)C1` (stereo not given), 579 s.
With `O=C(Nc1nnc(Cc2ccccc2)s1)C1CCN(C(=O)c2ccccc2)CC1` the figure was 767 s.

These data come from the METLIN SMRT retention time set (Domingo-Almenara et al. 2019).
